For assay [1], the target named is T1, MOR–Rluc8 and Gαi1β1γ2–GFP2 (Homo sapiens, UniProt P35372+P63096). Format: cell-based.
Assay [2] addresses T1, MOR–Rluc8 and Gαi1β1γ2–GFP2. In kind it is cell-based. As to conditions: MOR in the apo state, mean ± s.d.

Molecules are shown by their SMILES. Where two headings read alike, the source gives them in different places.

T1 sequence (P63096 2-354 limits assumed): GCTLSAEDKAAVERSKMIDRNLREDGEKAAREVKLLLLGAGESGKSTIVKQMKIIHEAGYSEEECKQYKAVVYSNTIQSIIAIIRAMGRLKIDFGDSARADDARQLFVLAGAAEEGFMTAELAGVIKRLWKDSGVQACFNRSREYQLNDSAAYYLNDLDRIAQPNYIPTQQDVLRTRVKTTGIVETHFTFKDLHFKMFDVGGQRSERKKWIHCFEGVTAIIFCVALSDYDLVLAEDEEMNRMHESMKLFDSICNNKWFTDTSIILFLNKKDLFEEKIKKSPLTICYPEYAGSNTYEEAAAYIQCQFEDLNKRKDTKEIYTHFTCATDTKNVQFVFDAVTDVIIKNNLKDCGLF
T1 sequence (P35372 whole entry): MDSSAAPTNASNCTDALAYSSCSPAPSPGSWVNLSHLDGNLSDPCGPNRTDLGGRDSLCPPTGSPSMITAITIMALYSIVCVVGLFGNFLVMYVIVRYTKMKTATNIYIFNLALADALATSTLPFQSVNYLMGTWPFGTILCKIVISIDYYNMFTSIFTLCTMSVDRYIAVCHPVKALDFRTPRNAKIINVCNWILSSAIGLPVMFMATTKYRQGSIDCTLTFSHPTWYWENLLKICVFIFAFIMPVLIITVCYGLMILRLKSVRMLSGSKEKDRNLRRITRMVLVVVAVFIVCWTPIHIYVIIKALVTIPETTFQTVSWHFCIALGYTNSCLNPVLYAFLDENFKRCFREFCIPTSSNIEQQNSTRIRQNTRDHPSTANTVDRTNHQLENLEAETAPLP
T1 sequence (P62873 2-340 partner limits assumed): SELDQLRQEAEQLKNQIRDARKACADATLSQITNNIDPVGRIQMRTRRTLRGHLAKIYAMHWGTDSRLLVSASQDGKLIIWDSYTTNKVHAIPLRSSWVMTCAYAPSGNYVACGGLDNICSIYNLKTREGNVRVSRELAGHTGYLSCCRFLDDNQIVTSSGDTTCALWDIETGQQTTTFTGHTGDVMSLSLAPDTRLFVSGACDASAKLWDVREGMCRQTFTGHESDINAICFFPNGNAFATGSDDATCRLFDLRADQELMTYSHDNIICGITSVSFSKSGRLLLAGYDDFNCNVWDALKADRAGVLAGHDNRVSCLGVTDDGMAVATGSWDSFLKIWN
T1 sequence (P59768 2-68 partner limits assumed): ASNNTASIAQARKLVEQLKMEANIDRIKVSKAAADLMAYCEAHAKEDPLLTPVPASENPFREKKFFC

As for `C[C@H]1CN(C[C@H](Cc2ccccc2)C(=O)NCC(=O)O)CC[C@@]1(C)c1cccc(O)c1` [Alvimopan], the signal changes result in assay [1] was “too small to interpret”.

As to `Nc1nc2c(ncn2[C@@H]2O[C@H](COP(=O)(O)OP(O)(O)=S)[C@@H](O)[C@H]2O)c(=O)[nH]1` [GDPβS], the EC50 in assay [2] (read-out: GDPβS EC50) is 0.057 ± 0.014 µM.

As for `Nc1nc2c(ncn2[C@@H]2O[C@H](COP(=O)(O)OP(=O)(O)OP(O)(O)=S)[C@@H](O)[C@H]2O)c(=O)[nH]1` [GTPγS], in assay [2] (read-out: GTPγS EC50), the EC50 came to 0.0038 ± 0.00018 µM.

(Values after paper PMC12711574 (Nature, 2025).)
